Measurements reported in patent US10865236B2, “Bispecific antigen-binding molecules that bind a staphylococcus target antigen and a complement component and uses thereof” (priority 2017, dated 2020).

Tested on: S. aureus MW2
Experiment: Mouse MRSA bacteremia model: bispecific antibody alone or in combination with linezolid, kidney, lung and heart burden Day 4
Assay type: in vivo, Humanized C1q (C1q^Hu/Hu) mice
Description: The bacteremia model described above in Example 12 was used to evaluate the activity of an anti-IsdB× anti-C1q bispecific antibody against S. aureus MRSA strains in reducing bacterial burden when used in combination with a standard-of-care antibiotic.
Humanized C1q (C1q^Hu/Hu) mice were infected intraperitoneally with 1.3×10^8 colony forming units (CFUs) per mouse of S. aureus MW2 in a volume of 200 ul. S. aureus MW2 was grown to log phase, OD600≤1, in TSB at 37° C. and washed 3 times in PBS and adjusted to the desired density for infection. Starting at eighteen (18) hours following infection, 2 groups of mice (n=5) were treated with 80 mg/kg of linezolid by oral gavage (200 ul volume), twice daily on Days 1, 2 and 3. […] Mice were weighed daily until Day 4 post infection and change in weight was recorded. Mice were euthanized on Day 4 and kidneys, lungs and hearts were collected to determine organ burden. Briefly, the organs were homogenized in 5 mL PBS using gentleMACS Octo Dissociator (Miltenyi Biotec) using programme-E. The tissue homogenates were then diluted in PBS and multiple 10-fold serial dilutions were plated on LB agar plates and incubated at 37° C. overnight. The next day, individual colonies were counted to determine bacterial burden and results were reported as CFUs/gram tissue.

CC(=O)NC[C@H]1CN(c2ccc(N3CCOCC3)c(F)c2)C(=O)O1 [linezolid, reference compound]
log reduction in overall CFUs, lung (MW2): 2 log | log reduction in overall CFUs, kidneys (MW2, compared to infection control (8.5 logs)): less than 2 log | log CFU reduction, heart (MW2, limit of detection 10^3 CFU): 3 log | CFUs/g heart (single agent (H1H20631D 100 ug/mouse, Antibiotic None; or Linezolid, no antibody), heart): 2.08E+05 CFUs/g | CFUs/g kidney (single agent (H1H20631D 100 ug/mouse, Antibiotic None; or Linezolid, no antibody), kidney): 6.99E+06 CFUs/g | CFUs/g lung (single agent (H1H20631D 100 ug/mouse, Antibiotic None; or Linezolid, no antibody), lung): 6.98E+05 CFUs/g
